The text below walks through data of patent EP1421935A1 (Casini, Angela, priority 2002, dated 2004).

Data set [1] can be described thus: chloroform-buffer partition coefficient. Type of data set: physicochemical. Conditions: pH 7.4 phosphate buffer, B compounds as sodium salts.
Description: The determination of partition coefficient is performed as follows. Chloroform - buffer partition coefficients are obtained by equilibrating the test compound between chloroform and 0.1-ionic strength pH 7.4 phosphate buffer. The concentration in each phase is determined by UV spectrophotometry or HPLC.
Data set [2] can be described thus: transcorneal penetration of drugs (in vitro corneal permeability). Conditions: rate constant of transfer across excised rabbit cornea, pH 7.4; for kin x 10^3 (hr^-1) No epithelium: denuded epithelium; for kin x 10^3 (hr^-1) Cornea intact: intact epithelium.
Description: The determination of transcorneal penetration of drugs is performed as follows. […] Excised rabbit corneas with either intact or denuded epithelium are used in these experiments. The pH is 7.4 and exposed area is 1.2 cm^2. Concentrations of drug of 40 - 2000 µM are placed in the epithelial chamber and samples of fluid are collected from the endothelial chamber at different intervals, up to 4 hr.
In data set [3] the test system is IOP of normotensive rabbits. The data set can be described thus: tonometric measurement of IOP after topical administration. In kind it is in vivo, New Zealand albino rabbits. Conditions: for IOP returns to baseline values after ... from administration: topical 2% solution (Fig. 2); for Δ IOP ± SE (mm Hg) 30 min: 30 min after one drop (50 µL) of 2% solution; for Δ IOP ± SE (mm Hg) 30 min / Δ IOP ± SE (mm Hg) 60 min / Δ IOP ± SE (mm Hg) 90 min: topical, IOP control eye - IOP treated eye (N = 3); for Δ IOP ± SE (mm Hg) 60 min: 60 min after one drop (50 µL) of 2% solution; for Δ IOP ± SE (mm Hg) 90 min: 90 min after one drop (50 µL) of 2% solution. As for the experimental part:
Tonometric measurement of IOP are performed as follows.
Adult male New Zealand albino rabbits weighing 3-3.5 kg are used in the experiments. Three animals are used for each inhibitor studied. The experimental procedures conform to the Association for Research in Vision and Ophthalmology Resolution on the use of animals. The rabbits are kept in individual cages with food and water provided ad libitum and maintained on a 12 h light/dark cycle in a temperature controlled room, at 22-26 °C. Solutions and suspensions of inhibitors (2 %, by weight, as hydrochlorides, or sodium carboxylates) are made in distilled deionized water. The pH of these solutions is in the range of 5.5 - 7.4.
IOP is measured using a Digilab 30R pneumatonometer (BioRad, Cambridge, MA, USA) as described by Maren et al. (Maren et al., Exp. Eye Res. 55:73-79, 1992; Brechue et al., Invest. Ophthalmol. Vis. Sci. 34:2581-2587,1993). The pressure readings are matched with two-point standard pressure measurements at least twice each day using a Digilab Calibration verifier. All IOP measurements are done by the same investigator with the same tonometer. One drop of 0.2 % oxybuprocaine hydrochloride (novesine, Sandoz) diluted 1:1 with saline is instilled in each eye immediately before each set of pressure measurements. IOP is measured three times at each time interval, and the means reported. IOP is measured first immediately before drug administration, then at 30 min after the instillation of the pharmacological agent, and then each 30 minutes for a period of 4-6 hours. For all IOP experiments drug is administered to only one eye, leaving the contralateral eye as an untreated control. The ocular hypotensive activity is expressed as the average difference in IOP between the treated and control eye, in this way minimizing the diurnal, seasonal and inter-individual variations commonly observed in the rabbit (Id.). All data are expressed as mean ± SE. Ocular hypertension is elicited in the right eye of albino rabbits by the injection of α-chymotrypsin (from Sigma) as described by Sugrue et al. (Sugrue et al., Br. J. Pharmacol. 99:59-64, 1990). The IOP of operated animals is checked after approximately four weeks, and animals with an elevated pressure of 30-36 mm Hg are used at least one month after the injection of α-chymotrypsin.
In vivo IOP lowering experiments are done in normotensive and glaucomatous rabbits, with many of the new compounds reported here, due to their strong CA II and CA IV inhibitory properties, such as B7, B10-B13, B15, B18-B22, B25, B27, B28, B33, B37, and A40. […] Measurements are at 30, 60 and 90 min after administration Table 3.

The target in a further data set is T1, bCA IV (Bos taurus, UniProt Q95323).
T1 sequence (Q95323 19-284): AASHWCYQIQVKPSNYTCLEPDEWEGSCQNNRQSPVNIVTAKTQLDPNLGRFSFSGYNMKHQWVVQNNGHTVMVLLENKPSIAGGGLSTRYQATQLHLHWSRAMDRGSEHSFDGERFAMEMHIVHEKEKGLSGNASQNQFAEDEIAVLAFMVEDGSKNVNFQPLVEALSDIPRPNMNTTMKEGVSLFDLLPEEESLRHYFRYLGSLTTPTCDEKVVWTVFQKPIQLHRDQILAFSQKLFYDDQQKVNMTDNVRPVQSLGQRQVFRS
The data set can be described thus: CA inhibition, esterase method (4-nitrophenylacetate hydrolysis).

The nature of data set [4]: solubility in aqueous buffer (UV of saturated solution). The settings on record: 25 °C, pH 7.4, aqueous buffer, thermodynamic from solid.
Description: The determination of solubility in aqueous buffer is performed as follows. […] The UV absorption maximum of each compound is determined (with a Cary 3 spectrophotometer) eventually diluting the solution (with MeOH) as necessary. […] The obtained saturated solution is filtered in order to remove solid compound through a Millipore 0.45 µm filter and scanned by UV at the wavelength of the absorption maximum previously determined. Total solubility is determined by the relationship: C' = A'C/A, where C = concentration of standard solution (mg/mL); A = absorbance of standard solution; A' = absorbance of the saturated solution; C' = concentration of the saturated solution (mg/mL).
Another data set deals with hCA II (Homo sapiens, UniProt P00918). Briefly: CA inhibition, esterase method (4-nitrophenylacetate hydrolysis).
Another data set concerns the target hCA I (Homo sapiens, UniProt P00915). The data set is described as above.
A short description of data set [5]: drug distribution in ocular fluids and tissues after topical administration. Conditions: mean ± standard deviation (n= 3). In kind it is in vivo, albino rabbits.
The mark [6] stands for this setting: 1h after corneal application of one drop (50 µL) of 2% solution.
Where [7] appears, read: 2h after corneal application of one drop (50 µL) of 2% solution.

Converted amounts (≈) assume the structure as drawn. Marks after values point to notes of the source that are not given here.

hCA I, sequence (P00915 whole entry): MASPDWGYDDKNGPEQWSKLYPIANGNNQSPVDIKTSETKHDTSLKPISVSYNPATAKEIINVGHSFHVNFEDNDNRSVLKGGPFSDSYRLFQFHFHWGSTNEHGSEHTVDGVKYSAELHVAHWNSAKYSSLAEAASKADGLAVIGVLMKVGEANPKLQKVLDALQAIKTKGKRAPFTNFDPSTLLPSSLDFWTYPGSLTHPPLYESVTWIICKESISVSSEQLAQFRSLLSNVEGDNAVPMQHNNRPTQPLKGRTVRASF
Description for bCA IV: (§1) Stock solutions of inhibitor (1 mM) are prepared in distilled-deionized water with 10-20% (v/v) DMSO (which is not inhibitory at these concentrations) and dilutions up to 0.01 nM are done thereafter with distilled-deionized water. Inhibitor and enzyme solutions are preincubated together for 10 min at room temperature prior to assay, in order to allow for the formation of the E-I complex.
Description for hCA II: as §1

With `CC(=O)/N=c1/sc(S(N)(=O)=O)nn1C` [Methazolamide, methazolamide, reference compound], in data set [1], the Log P – broadly, the decadic logarithm of the partition coefficient of the neutral form, usually between octanol and water – stood at 0.06. Moreover, in data set [2], the “kin x 10^3 (hr^-1) No epithelium” value worked out at 13 hr^-1 and the “kin x 10^3 (hr^-1) Cornea intact” value is 1.90 hr^-1.
Regarding `NS(=O)(=O)c1ccc(CNC(=S)NC(CO)C(=O)O)cc1` (stereo not shown) [B19], the “IOP returns to baseline values after ... from administration” value (“IOP returns to baseline values after ...” for short) in data set [3] was 5 to 6 h. Also, the Ki (in general, a dissociation constant, usually derived from enzyme kinetics or from competition with a known ligand) at bCA IV came out at 9 nM; on hCA II it was 2 nM; on hCA I, 23 nM. For the same compound, the concentration in solution in data set [4] (phosphate buffer) (solubility) came to 70 mM (≈ 23.3 mg/mL). Besides, the “Log P” value in data set [1] amounted to 1.662. Further, the “kin x 10^3 (hr^-1) No epithelium” value in data set [2] is on record as 8.5 hr^-1. Further, the “kin x 10^3 (hr^-1) Cornea intact” value in data set [2] was found to be 3.3 hr^-1.
`NS(=O)(=O)c1ccc(CNC(=S)NC(C(=O)O)c2ccccc2)cc1` (stereo not shown) [B18]: the values for the Ki at bCA IV, on hCA II and on hCA I were 12 nM, 5 nM and 40 nM, respectively. Moreover, in data set [4] (phosphate buffer), the solubility (usually the concentration that dissolves in the medium under given conditions) turned out to be 59 mM (≈ 22.4 mg/mL). Moreover, the “Log P” value in data set [1] stood at 3.721. For the same compound, the “kin x 10^3 (hr^-1) No epithelium” value in data set [2] is listed as 12.0 hr^-1. In data set [2], the “kin x 10^3 (hr^-1) Cornea intact” value is 5.6 hr^-1.
For the compound `NC(=O)CC(NC(=S)NCc1ccc(S(N)(=O)=O)cc1)C(=O)O` (stereo not shown) [B28], the “IOP returns to baseline values after ...” value in data set [3] lay in the range of 5 to 6 h. Further, the results for the Ki at bCA IV, at hCA II and on hCA I were 9 nM, 5 nM and 22 nM, respectively.
In the case of `NS(=O)(=O)c1ccc(CNC(=S)Nc2ccccc2C(=O)O)cc1` [B11], the figures for the Ki on bCA IV, at hCA II and at hCA I were 23 nM, 11 nM and 54 nM, respectively. In data set [4] (phosphate buffer), the concentration in solution (solubility) was 41 mM (≈ 15 mg/mL). In data set [1], the “Log P” value came out at 1.238. In addition, the “kin x 10^3 (hr^-1) No epithelium” value in data set [2] was found to be 8.3 hr^-1. For the same compound, the “kin x 10^3 (hr^-1) Cornea intact” value in data set [2] was 2.9 hr^-1.
As for `NS(=O)(=O)c1ccc(CNC(=S)NCCC(=O)NC(Cc2cnc[nH]2)C(=O)O)cc1` (stereo not shown) [B40], the Ki on bCA IV stood at 9 nM; on hCA II it was 4 nM; at hCA I, 22 nM. The compound further had a solubility at 3 h in data set [4] of 57 mM (≈ 25.9 mg/mL). In data set [1], the “Log P” value is recorded as 0.933. Also, the “kin x 10^3 (hr^-1) No epithelium” value in data set [2] is 5.9 hr^-1. Besides, in data set [2], the “kin x 10^3 (hr^-1) Cornea intact” value was determined as 2.8 hr^-1.
`NS(=O)(=O)c1ccc(CNC(=S)NC(C(=O)O)C(O)c2ccccc2)cc1` (stereo not shown) [B20]: in data set [3], the “IOP returns to baseline values after ...” value is 5 to 6 h. The same compound registered a Ki on bCA IV of 7 nM. In addition, in data set [4] (phosphate buffer), the concentration in solution (solubility) was 51 mM (≈ 20.9 mg/mL). In data set [1], the “Log P” value came out at 2.518. In data set [5] (setting [6]), the “Drug concentration (µM) Aqueous humor” value was 205 ± 12 µM, the “Drug concentration (µM) Ciliary process” value was found to be 49 ± 5 µM and the “Drug concentration (µM) Cornea” value came to 133 ± 10 µM. Moreover, in data set [5] (setting [7]), the “Drug concentration (µM) Aqueous humor” value amounted to 53 ± 5 µM, the “Drug concentration (µM) Ciliary process” value is on record as 15 ± 1 µM and the “Drug concentration (µM) Cornea” value turned out to be 70 ± 9 µM. Moreover, in data set [2], the “kin x 10^3 (hr^-1) No epithelium” value was 10.7 hr^-1 and the “kin x 10^3 (hr^-1) Cornea intact” value is listed as 4.9 hr^-1. Also, affinity on hCA II was put at a Ki of 1 nM. This compound yielded a Ki on hCA I of 20 nM.
Regarding `NS(=O)(=O)c1ccc(CNC(=S)Nc2ccc(C(=O)O)cc2)cc1` [B13], in data set [3], the “Δ IOP ± SE (mm Hg) 30 min” value is on record as 1.2±0.15 mm Hg, the “Δ IOP ± SE (mm Hg) 60 min” value is 7.0±0.15 mm Hg and the “Δ IOP ± SE (mm Hg) 90 min” value is listed as 10.3±0.20 mm Hg. The compound further displayed a Ki on bCA IV of 21 nM. This compound also registered a solubility in data set [4] (phosphate buffer) of 46 mM (≈ 16.8 mg/mL). Further, the “Log P” value in data set [1] amounted to 1.428. In data set [5] (setting [6]), the “Drug concentration (µM) Aqueous humor” value came out at 204 ± 13 µM, the “Drug concentration (µM) Ciliary process” value was 50 ± 7 µM and the “Drug concentration (µM) Cornea” value came to 123 ± 9 µM. In data set [5] (setting [7]), the “Drug concentration (µM) Aqueous humor” value turned out to be 62 ± 4 µM, the “Drug concentration (µM) Ciliary process” value was 23 ± 2 µM and the “Drug concentration (µM) Cornea” value was determined as 76 ± 5 µM. In addition, in data set [2], the “kin x 10^3 (hr^-1) No epithelium” value came out at 9.1 hr^-1 and the “kin x 10^3 (hr^-1) Cornea intact” value is recorded as 3.3 hr^-1. The affinity at hCA II corresponds to a Ki of 9 nM. On hCA I, this compound registered a Ki of 47 nM.
For `CCN[C@H]1C[C@H](C)S(=O)(=O)c2sc(S(N)(=O)=O)cc21` [Dorzolamide, dorzolamide, reference compound], in data set [3], the “Δ IOP ± SE (mm Hg) 30 min” value is on record as 2.2±0.15 mm Hg, the “Δ IOP ± SE (mm Hg) 60 min” value is reported as 4.1±0.15 mm Hg and the “Δ IOP ± SE (mm Hg) 90 min” value stood at 2.7±0.10 mm Hg. Also, in data set [3] (listed as dorzolamide), the “Δ IOP ± SE (mm Hg) 30 min” value was determined as 2.2 mm Hg and the “Δ IOP ± SE (mm Hg) 60 min” value is recorded as 4.1 mm Hg. This compound also had a solubility at 3 h in data set [4] (phosphate buffer) of 60 mM (≈ 19.5 mg/mL). For the same compound, in data set [1], the “Log P” value is 2.0^e. In data set [2], the “kin x 10^3 (hr^-1) No epithelium” value turned out to be 5.2 hr^-1 and the “kin x 10^3 (hr^-1) Cornea intact” value is 3.0 hr^-1.
For the compound `NS(=O)(=O)c1ccc(CNC(=S)Nc2cccc(C(=O)O)c2)cc1` [B12], the values for the inhibition constant Ki at bCA IV, at hCA II and on hCA I were 29 nM, 10 nM and 38 nM, respectively. For the same compound, in data set [4] (phosphate buffer), the solubility was 40 mM (≈ 14.6 mg/mL). In addition, the “Log P” value in data set [1] is recorded as 1.313. In addition, in data set [2], the “kin x 10^3 (hr^-1) No epithelium” value is 8.7 hr^-1. In addition, the “kin x 10^3 (hr^-1) Cornea intact” value in data set [2] amounted to 3.0 hr^-1.
Turning to `NS(=O)(=O)c1ccc(CNC(=S)NC(CS)C(=O)O)cc1` (stereo not shown) [B22], the Ki on bCA IV worked out at 8 nM; on hCA II, 3 nM; on hCA I, 21 nM. In data set [4] (phosphate buffer), this compound registered a solubility of 65 mM (≈ 22.7 mg/mL). For the same compound, in data set [1], the “Log P” value is on record as 0.124. Further, in data set [2], the “kin x 10^3 (hr^-1) No epithelium” value is recorded as 0.9 hr^-1. In addition, the “kin x 10^3 (hr^-1) Cornea intact” value in data set [2] was 0.4 hr^-1.
With `CCOc1ccc2nc(S(N)(=O)=O)sc2c1` [Ethoxzolamide, ethoxzolamide, reference compound], the concentration in solution in data set [4] (phosphate buffer) (solubility at 3 h) came to 0.04 mM (≈ 0.0103 mg/mL). For the same compound, the “Log P” value in data set [1] was 1.40.
